Source: US20160256460A1, “ACTIVATORS OR STIMULATORS OF SOLUBLE GUANYLATE CYCLASE FOR USE IN TREATING CHRONIC FATIGUE SYNDROME” (BERGEN TEKNOLOGIOVERFØRING AS, priority 2013, published 2016)

Tested on: ME/CFS patient
Assay: Case report: oral riociguate (Adempas) in one ME/CFS patient
Assay type: in vivo, human
Protocol: It is understood that the examples illustrate the invention further without limiting the same. The patient is a person. They have had ME/CFS for 10 years, starting after a Giardia Lamblia infection. They have a disease severity varying between moderate and mild, but with moderate severity the last month prior to start of Riociguat. They have a typical ME/CFS and fulfils Canadian criteria. […] They started with only 0.5 mg once daily, gradually increasing to 0.5 two times daily after a few days and again to 0.5 mg three times daily on day six. […] The dose was increased to 1 mg+0.5 mg+1 mg starting from day seven and, in addition, starting from day nine increased to 1 mg three times daily. […] They told the clinicians of the improvement of their ME/CFS symptoms. They experienced this improvement to be significant and not within the usual range of symptom variation of their ME/CFS disease the last months.

COC(=O)N(C)c1c(N)nc(-c2nn(Cc3ccccc3F)c3ncccc23)nc1N [Riociguat, Methyl 4,6-diamino-2-[1-(2-fluorobenzyl)-1H-pyrazolo[3,4-b]pyridine-3-yl]-5-pyrimidinyl(methyl)carbamate]
ME/CFS symptom change reported by the patient (after the first six days, at a dose of 2.5 mg per day): more energy and less fatigue, less brain fog with an improved concentration ability, less hypersensitivity to sound and light, and less feeling of sore throat
benefit on the ME/CFS symptoms (person, moderate ME/CFS, oral 0.5 mg once daily increased to 0.5 mg three times daily on day six, noticed from day six, the next three days): benefit on the ME/CFS symptoms
side effects (same patient, dose increased up to 1 mg three times daily from day nine): no clear side effects
